Calls of active or inactive are those of the source. The calls are words filed in the database; no cut-off is given here.
How the values were obtained:
[1] = target: Metabotropic glutamate receptor 1 (Rattus norvegicus) (UniProt P23385); test: Negative allosteric modulation of rat mGluR1 expressed in HEK293 cells assessed as calcium mobilization at 30 uM by calcium mobilization assay relative to 100 uM glutamate; format: functional, cell-based
[2] = target: Metabotropic glutamate receptor 1 (Rattus norvegicus, UniProt P23385); test: Negative allosteric modulation of rat mGluR1 expressed in HEK293 cells assessed as inhibition of glutamate induced calcium mobilization by calcium mobilization assay; format: functional, cell-based
Chain of Metabotropic glutamate receptor 1 (Rattus norvegicus, UniProt P23385) (P23385 whole entry): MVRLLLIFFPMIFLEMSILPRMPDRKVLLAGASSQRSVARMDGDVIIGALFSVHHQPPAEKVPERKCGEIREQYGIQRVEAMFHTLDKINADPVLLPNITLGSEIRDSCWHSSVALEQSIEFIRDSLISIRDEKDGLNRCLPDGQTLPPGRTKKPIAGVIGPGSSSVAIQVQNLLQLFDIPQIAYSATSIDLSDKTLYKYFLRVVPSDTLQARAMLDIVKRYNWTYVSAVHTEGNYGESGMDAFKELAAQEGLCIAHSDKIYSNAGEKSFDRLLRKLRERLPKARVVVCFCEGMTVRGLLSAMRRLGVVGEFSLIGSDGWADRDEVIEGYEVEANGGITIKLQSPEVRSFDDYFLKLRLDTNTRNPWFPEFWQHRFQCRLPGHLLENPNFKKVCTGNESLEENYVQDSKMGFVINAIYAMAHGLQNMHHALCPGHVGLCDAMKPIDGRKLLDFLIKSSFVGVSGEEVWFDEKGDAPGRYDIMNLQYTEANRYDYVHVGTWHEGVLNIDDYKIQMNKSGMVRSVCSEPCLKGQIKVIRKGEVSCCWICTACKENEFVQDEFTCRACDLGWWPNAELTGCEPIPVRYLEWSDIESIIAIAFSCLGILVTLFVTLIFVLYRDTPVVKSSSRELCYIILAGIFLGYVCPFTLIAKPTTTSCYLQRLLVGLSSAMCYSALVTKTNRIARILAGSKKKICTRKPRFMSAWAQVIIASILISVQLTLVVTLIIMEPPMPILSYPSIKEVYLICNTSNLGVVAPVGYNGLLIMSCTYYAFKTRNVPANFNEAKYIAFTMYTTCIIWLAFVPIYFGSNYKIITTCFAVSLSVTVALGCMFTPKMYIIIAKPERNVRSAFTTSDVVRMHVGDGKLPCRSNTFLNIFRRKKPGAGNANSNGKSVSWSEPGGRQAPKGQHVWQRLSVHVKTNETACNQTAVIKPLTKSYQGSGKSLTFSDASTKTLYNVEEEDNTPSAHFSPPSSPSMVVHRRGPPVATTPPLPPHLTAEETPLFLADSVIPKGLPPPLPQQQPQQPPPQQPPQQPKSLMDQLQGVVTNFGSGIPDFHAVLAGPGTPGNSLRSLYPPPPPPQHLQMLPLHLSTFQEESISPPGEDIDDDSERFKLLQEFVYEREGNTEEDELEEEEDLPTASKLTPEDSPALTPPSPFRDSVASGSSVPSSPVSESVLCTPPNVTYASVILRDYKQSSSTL

[3] = target: Metabotropic glutamate receptor 5 (Rattus norvegicus, UniProt P31424); test: Negative allosteric modulation of rat mGluR5 expressed in HEK293 cells assessed as inhibition of glutamate induced calcium mobilization by calcium mobilization assay; format: functional, cell-based
Chain of Metabotropic glutamate receptor 5 (Rattus norvegicus, UniProt P31424) (P31424 whole entry): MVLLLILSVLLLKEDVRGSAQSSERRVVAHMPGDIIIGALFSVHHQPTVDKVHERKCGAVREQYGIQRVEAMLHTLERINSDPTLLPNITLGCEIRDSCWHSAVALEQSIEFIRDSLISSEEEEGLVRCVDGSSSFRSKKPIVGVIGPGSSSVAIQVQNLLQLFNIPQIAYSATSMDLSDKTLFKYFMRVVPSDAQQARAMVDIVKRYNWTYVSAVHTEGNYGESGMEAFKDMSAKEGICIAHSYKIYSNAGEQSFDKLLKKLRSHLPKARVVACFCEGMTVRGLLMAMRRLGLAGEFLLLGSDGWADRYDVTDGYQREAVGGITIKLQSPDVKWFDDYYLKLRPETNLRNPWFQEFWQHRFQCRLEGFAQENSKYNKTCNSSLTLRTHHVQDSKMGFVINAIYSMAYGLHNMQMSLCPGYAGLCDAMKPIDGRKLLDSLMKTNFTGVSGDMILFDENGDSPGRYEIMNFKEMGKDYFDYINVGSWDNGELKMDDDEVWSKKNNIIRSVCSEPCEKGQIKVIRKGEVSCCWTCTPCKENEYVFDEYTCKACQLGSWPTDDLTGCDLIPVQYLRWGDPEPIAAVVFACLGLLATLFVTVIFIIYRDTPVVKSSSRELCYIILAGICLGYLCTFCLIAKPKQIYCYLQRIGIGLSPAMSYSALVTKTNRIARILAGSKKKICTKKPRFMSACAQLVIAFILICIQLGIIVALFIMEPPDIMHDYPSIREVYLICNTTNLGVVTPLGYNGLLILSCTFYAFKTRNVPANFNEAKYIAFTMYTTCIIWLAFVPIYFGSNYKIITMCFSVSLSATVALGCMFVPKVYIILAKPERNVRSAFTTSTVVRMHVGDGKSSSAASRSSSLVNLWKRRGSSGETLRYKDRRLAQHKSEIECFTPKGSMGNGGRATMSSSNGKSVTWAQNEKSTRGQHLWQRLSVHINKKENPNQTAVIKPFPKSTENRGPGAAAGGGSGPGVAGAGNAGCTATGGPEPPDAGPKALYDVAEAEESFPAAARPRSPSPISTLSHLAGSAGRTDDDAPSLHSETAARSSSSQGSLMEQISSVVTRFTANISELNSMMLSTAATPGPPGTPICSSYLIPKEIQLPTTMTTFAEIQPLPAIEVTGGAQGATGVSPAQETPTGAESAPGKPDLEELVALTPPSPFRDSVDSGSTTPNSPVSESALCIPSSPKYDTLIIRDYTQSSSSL

[4] = Fraction unbound in mouse plasma by equilibrium dialysis assay; format: ADME, cell-free
Cytochrome P450 2D6 = Cytochrome P450 2D6 (Homo sapiens, UniProt P10635); test: Inhibition of CYP2D6 in human liver microsomes in presence of NADPH; format: ADME
[5] = Ratio of drug level in brain to plasma of CD-1 mouse at 30 mg/kg measured at 30 mins post dose; format: ADME, organism-based; settings: 0.5 h
[6] = Cmax in CD-1 mouse at 30 mg/kg, ip; format: ADME, organism-based; set-up: dose 30 mg/kg, route intraperitoneal; settings: in vivo
[7] = target: Metabotropic glutamate receptor 8 (Rattus norvegicus) (UniProt P70579); test: Activity at rat mGluR8 expressed in HEK293-GIRK cells assessed as effect on glutamate-induced response by thallium flux assay; format: cell-based
[8] = target: Serine/threonine-protein kinase 17A (Homo sapiens) (UniProt Q9UEE5); test: Inhibition of human DRAK1 at 10 uM
[9] = Ratio of drug level in brain to plasma of rat at 0.2 mg/kg measured at 15 mins post dose; format: ADME, organism-based; settings: 0.25 h
Plasma = test: Fraction unbound in rat plasma by equilibrium dialysis assay; format: ADME, cell-free
[10] = target: Metabotropic glutamate receptor 2 (Rattus norvegicus) (UniProt P31421); test: Activity at rat mGluR2 expressed in HEK293-GIRK cells assessed as effect on glutamate-induced response by thallium flux assay; format: cell-based
[11] = target: SRSF protein kinase 2 (Homo sapiens) (UniProt P78362); test: Inhibition of human SRPK2 at 10 uM
[12] = Unbound brain to plasma ratio in CD-1 mouse at 30 mg/kg, ip measured at 30 mins post dose; format: ADME, organism-based; settings: 0.5 h
Cytochrome P450 2C9 = Cytochrome P450 2C9 (Homo sapiens, UniProt P11712); test: Inhibition of CYP2C9 in human liver microsomes in presence of NADPH; format: ADME
[13] = Plasma clearance in Sprague-Dawley rat at 0.2 mg/kg, iv; format: ADME, organism-based
[14] = Unbound brain to plasma ratio in rat at 0.2 mg/kg measured at 15 mins post dose; format: ADME, organism-based; settings: 0.25 h
[15] = target: Sodium-dependent noradrenaline transporter (Homo sapiens) (UniProt P23975); test: Inhibition of recombinant human norepinephrine transporter expressed in MDCK cells at 10 uM by radioligand binding assay; format: cell-based
[16] = target: Metabotropic glutamate receptor 7 (Rattus norvegicus) (UniProt P35400); test: Activity at rat mGluR7 expressed in HEK293-GIRK cells assessed as effect on glutamate-induced response by thallium flux assay; format: cell-based
[17] = target: Adenosine receptor A2a (Homo sapiens) (UniProt P29274); test: Inhibition of recombinant human Adenosine A2A receptor expressed in HEK293 cells at 10 uM by radioligand binding assay; format: cell-based
[18] = target: Metabotropic glutamate receptor 3 (Rattus norvegicus) (UniProt P31422); test: Activity at rat mGluR3 expressed in HEK293-GIRK cells assessed as effect on glutamate-induced response by thallium flux assay; format: cell-based
Rattus norvegicus = species: Rattus norvegicus; test: Inhibition of rat brain sodium channel, site 2 at 10 uM by radioligand binding assay
[19] = target: Metabotropic glutamate receptor 5 (Rattus norvegicus) (UniProt P31424); test: Negative allosteric modulation of rat mGluR5 expressed in HEK293 cells assessed as calcium mobilization at 30 uM by calcium mobilization assay relative to 100 uM glutamate; format: functional, cell-based
Chain of Metabotropic glutamate receptor 5 (Rattus norvegicus) (P31424 21-1203 limits assumed): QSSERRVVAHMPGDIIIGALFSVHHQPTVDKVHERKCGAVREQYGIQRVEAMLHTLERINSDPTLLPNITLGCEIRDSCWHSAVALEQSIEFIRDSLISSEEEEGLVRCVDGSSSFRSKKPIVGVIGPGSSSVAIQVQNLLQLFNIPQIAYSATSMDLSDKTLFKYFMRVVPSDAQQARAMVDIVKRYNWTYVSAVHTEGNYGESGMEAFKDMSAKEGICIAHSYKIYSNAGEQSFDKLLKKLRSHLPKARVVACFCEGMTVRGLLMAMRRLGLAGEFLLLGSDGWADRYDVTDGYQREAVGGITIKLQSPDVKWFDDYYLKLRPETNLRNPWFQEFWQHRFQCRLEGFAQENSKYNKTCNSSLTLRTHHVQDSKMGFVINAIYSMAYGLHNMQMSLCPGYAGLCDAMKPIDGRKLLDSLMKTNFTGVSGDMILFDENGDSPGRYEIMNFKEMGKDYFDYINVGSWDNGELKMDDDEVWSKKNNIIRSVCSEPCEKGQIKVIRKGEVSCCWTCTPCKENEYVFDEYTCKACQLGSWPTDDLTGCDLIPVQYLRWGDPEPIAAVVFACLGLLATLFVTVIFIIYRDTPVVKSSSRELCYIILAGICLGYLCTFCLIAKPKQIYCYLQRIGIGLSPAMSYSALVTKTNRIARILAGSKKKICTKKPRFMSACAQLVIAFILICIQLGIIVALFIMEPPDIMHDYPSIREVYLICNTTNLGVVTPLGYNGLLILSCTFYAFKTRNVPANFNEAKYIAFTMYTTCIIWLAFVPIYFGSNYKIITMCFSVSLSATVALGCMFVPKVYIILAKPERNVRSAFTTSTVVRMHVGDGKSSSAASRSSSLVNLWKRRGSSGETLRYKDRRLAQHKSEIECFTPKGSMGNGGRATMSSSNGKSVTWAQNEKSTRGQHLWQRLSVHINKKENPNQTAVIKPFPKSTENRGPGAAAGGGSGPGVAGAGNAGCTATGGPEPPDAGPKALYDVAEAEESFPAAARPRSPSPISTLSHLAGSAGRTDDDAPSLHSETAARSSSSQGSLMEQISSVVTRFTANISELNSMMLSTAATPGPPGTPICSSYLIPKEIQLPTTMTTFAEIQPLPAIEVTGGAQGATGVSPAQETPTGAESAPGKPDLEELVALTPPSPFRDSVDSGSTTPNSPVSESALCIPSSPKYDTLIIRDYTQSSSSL

[20] = Fraction unbound in mouse brain by equilibrium dialysis assay; format: ADME, tissue-based
[21] = AUC in Sprague-Dawley rat at 10 mg/kg, ip; format: ADME, organism-based; settings: in vivo
[22] = target: Metabotropic glutamate receptor 4 (Rattus norvegicus) (UniProt P31423); test: Activity at rat mGluR4 expressed in HEK293-GIRK cells assessed as effect on glutamate-induced response by thallium flux assay; format: cell-based
[23] = target: Casein kinase I isoform epsilon (Homo sapiens) (UniProt P49674); test: Inhibition of human CK1epsilon at 10 uM
[24] = target: TRAF2 and NCK-interacting protein kinase (Homo sapiens) (UniProt Q9UKE5); test: Inhibition of human TNIK at 10 uM
[25] = target: SRSF protein kinase 1 (Homo sapiens) (UniProt Q96SB4); test: Inhibition of human SRPK1 at 10 uM
[26] = AUC in CD-1 mouse at 30 mg/kg, ip; format: ADME, organism-based; settings: in vivo
[27] = Tmax in CD-1 mouse at 30 mg/kg, ip; format: ADME, organism-based; settings: in vivo
[28] = Half life in Sprague-Dawley rat at 0.2 mg/kg, iv; format: ADME, organism-based; settings: in vivo
[29] = target: Adenosine receptor A1 (Homo sapiens) (UniProt P30542); test: Inhibition of recombinant human Adenosine A1 receptor expressed in CHO cells at 10 uM by radioligand binding assay; format: cell-based
[30] = target: Casein kinase I isoform delta (Homo sapiens) (UniProt P48730); test: Inhibition of human CK1delta at 10 uM
[31] = target: Casein kinase I isoform alpha (Homo sapiens) (UniProt P48729); test: Inhibition of human CK1alpha1 at 10 uM
[32] = Fraction unbound in rat brain by equilibrium dialysis assay; format: ADME, tissue-based
[33] = target: Metabotropic glutamate receptor 6 (Rattus norvegicus) (UniProt P35349); test: Activity at rat mGluR6 expressed in HEK293-GIRK cells assessed as effect on glutamate-induced response by thallium flux assay; format: cell-based
Cytochrome P450 3A4 = Cytochrome P450 3A4 (Homo sapiens, UniProt P08684); test: Inhibition of CYP3A4 in human liver microsomes in presence of NADPH; format: ADME
[34] = target: Adenosine receptor A3 (Homo sapiens) (UniProt P0DMS8); test: Inhibition of recombinant human Adenosine A3 receptor expressed in CHOK1 cells at 10 uM by radioligand binding assay; settings: CHO-K1
Chain of Adenosine receptor A3 (Homo sapiens) (P0DMS8 whole entry, looked up): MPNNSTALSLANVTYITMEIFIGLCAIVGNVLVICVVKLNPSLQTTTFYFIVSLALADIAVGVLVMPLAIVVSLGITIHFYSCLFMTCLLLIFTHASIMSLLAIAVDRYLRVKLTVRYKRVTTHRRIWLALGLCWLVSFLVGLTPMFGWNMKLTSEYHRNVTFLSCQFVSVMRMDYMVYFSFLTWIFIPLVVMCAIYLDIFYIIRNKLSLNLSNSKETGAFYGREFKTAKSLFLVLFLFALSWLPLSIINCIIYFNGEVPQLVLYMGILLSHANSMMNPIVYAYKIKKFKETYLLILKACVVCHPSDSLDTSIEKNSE

[35] = Tmax in Sprague-Dawley rat at 10 mg/kg, ip; format: ADME, organism-based; settings: in vivo
Cytochrome P450 1A2 = Cytochrome P450 1A2 (Homo sapiens, UniProt P05177); test: Inhibition of CYP1A2 in human liver microsomes in presence of NADPH; format: ADME
[36] = Cmax in Sprague-Dawley rat at 10 mg/kg, ip; format: ADME, organism-based; set-up: dose 10 mg/kg, route intraperitoneal; settings: in vivo
[37] = target: 5-hydroxytryptamine receptor 2B (Homo sapiens) (UniProt P41595); test: Inhibition of recombinant human 5-HT2B receptor expressed in CHOK1 cells at 10 uM by radioligand binding assay; format: cell-based; settings: CHO-K1
[38] = target: Casein kinase I isoform gamma-2 (Homo sapiens) (UniProt P78368); test: Inhibition of human CK1gamma2 at 10 uM
[39] = target: Metabotropic glutamate receptor 1 (Homo sapiens, UniProt Q13255); test: Negative allosteric modulation activity at recombinant human mGluR1a expressed in CHO cells assessed as inhibition of L-glutamate-induced intracellular Ca2+ mobilization; format: functional, cell-based
[40] = target: Metabotropic glutamate receptor 5 (Homo sapiens, UniProt P41594); test: Negative allosteric modulation activity at recombinant human mGluR5a expressed in CHO cells assessed as inhibition of L-glutamate-induced intracellular Ca2+ mobilization; format: functional, cell-based

Chain of Metabotropic glutamate receptor 1 (Rattus norvegicus) (P23385 19-1199 limits assumed): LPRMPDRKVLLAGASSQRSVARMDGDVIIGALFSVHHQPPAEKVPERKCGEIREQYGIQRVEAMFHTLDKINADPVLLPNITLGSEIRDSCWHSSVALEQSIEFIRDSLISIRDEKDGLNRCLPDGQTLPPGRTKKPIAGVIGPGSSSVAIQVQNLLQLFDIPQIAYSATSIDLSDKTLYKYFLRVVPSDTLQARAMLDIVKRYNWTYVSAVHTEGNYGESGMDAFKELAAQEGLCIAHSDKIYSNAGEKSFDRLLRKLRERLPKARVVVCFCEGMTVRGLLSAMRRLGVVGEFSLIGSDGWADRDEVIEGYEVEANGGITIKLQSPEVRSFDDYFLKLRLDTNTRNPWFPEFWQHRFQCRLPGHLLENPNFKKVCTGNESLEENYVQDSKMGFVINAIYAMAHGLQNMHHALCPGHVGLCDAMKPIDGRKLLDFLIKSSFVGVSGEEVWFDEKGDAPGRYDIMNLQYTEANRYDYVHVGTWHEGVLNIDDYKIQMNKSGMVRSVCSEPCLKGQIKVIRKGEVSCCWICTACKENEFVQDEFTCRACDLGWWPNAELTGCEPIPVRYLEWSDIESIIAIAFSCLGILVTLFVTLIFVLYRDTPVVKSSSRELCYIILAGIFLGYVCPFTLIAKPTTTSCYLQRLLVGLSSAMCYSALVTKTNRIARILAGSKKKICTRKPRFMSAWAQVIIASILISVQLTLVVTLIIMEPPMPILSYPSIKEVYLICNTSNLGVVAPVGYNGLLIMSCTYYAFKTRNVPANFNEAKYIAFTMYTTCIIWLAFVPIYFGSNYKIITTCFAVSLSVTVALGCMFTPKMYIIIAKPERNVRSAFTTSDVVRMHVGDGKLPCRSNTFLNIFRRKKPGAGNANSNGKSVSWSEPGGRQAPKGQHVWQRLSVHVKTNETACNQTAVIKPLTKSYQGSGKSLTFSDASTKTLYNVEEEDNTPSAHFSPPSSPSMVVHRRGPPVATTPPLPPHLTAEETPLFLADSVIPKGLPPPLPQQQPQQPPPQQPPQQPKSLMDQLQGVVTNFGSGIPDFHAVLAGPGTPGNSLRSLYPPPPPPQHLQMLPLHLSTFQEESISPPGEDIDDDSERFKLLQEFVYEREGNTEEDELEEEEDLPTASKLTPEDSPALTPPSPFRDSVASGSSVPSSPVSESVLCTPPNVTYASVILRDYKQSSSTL

## Cc1nc(N[C@@H]2C[C@@H]3C[C@H]([C@H]2C)C3(C)C)c2nn3ccccc3c2n1
[1]
  %max: 2.4%
[2]
  IC50: 0.759 µM

## CC(C)Nc1nc(N[C@H]2CC[C@H](C)CC2)c2nn3ccccc3c2n1
[3]; read-out: IC50
  IC50: > 30 µM
[3]; read-out: pIC50 (converted)
  IC50: > 31.6 µM
[2]
  IC50: > 30 µM

## CC1(C)CCC(Nc2ncnc3c2nn2ccccc32)CC1
[4]
  Fu: 0.025
Cytochrome P450 2D6
  IC50: > 30 µM
[5]
  Kp: 3.3
[6]
  Cmax: 3000 nM
[1]
  %max: 2.9%
[7]
  Activity: inactive
[3]; read-out: IC50
  IC50: 0.129 µM
[8]
  inhibition: 52.9%
[9]
  Kp: 5.3
Plasma
  Fu: 0.037
[10]
  Activity: inactive
[11]
  inhibition: 75.2%
[12]
  K(p,uu,brain): 1.3
Cytochrome P450 2C9
  IC50: > 30 µM
[13]
  clearance: 98 mL/min/kg
[14]
  K(p,uu,brain): 1.1
[2]
  IC50: 0.069 µM
[15]
  inhibition: 65%
[16]
  Activity: inactive
[17]
  inhibition: 94%
[18]
  Activity: inactive
Rattus norvegicus
  inhibition: 55%
[19]
  %max: 1.6%
[20]
  fraction unbound: 0.01
[21]
  AUC: 3.23 µM·h
[22]
  Activity: inactive
[23]
  inhibition: 75.9%
[24]
  inhibition: 58.8%
[25]
  inhibition: 79.4%
[26]
  AUC: 2.86 µM·h
[27]
  Tmax: 20 min
[28]
  half-life: 34 min
[29]
  inhibition: 92%
[30]
  inhibition: 85.1%
[31]
  inhibition: 65.3%
[32]
  fraction unbound: 0.008
[33]
  Activity: inactive
Cytochrome P450 3A4
  IC50: > 30 µM
[34]
  inhibition: 63%
[35]
  Tmax: 15 min
Cytochrome P450 1A2
  IC50: 9.6 µM
[36]
  Cmax: 2300 nM
[37]
  inhibition: 65%
[38]
  inhibition: 50.4%

## CN(C)c1nc(N[C@H]2CC[C@H](C)CC2)c2nn3ccccc3c2n1
[3]; read-out: IC50
  IC50: > 30 µM
[3]; read-out: pIC50 (converted)
  IC50: > 31.6 µM
[2]
  IC50: > 30 µM

## CC1(C)[C@@H]2CC[C@]1(C)[C@@H](Nc1ncnc3c1nn1ccccc31)C2
[1]
  %max: 7.1%
[3]; read-out: IC50
  IC50: > 30 µM
[3]; read-out: pIC50 (converted)
  IC50: > 31.6 µM

## c1ccn2nc3c(N[C@H]4C[C@@H]5CC[C@H]4C5)ncnc3c2c1
[1]
  %max: 2.5%
[3]; hek293, read-out: IC50
  IC50: > 10 µM
[3]; read-out: pIC50 (converted)
  IC50: > 10 µM
[2]
  IC50: 0.232 µM
[19]
  %max: 9.9%

## Cc1nc(N[C@H]2C[C@H]3CC[C@@]2(C)C3(C)C)c2nn3ccccc3c2n1
[1]
  %max: 7.1%
[3]; read-out: IC50
  IC50: > 30 µM
[3]; read-out: pIC50 (converted)
  IC50: > 31.6 µM

## OC12CC3CC(C1)CC(Nc1ncnc4c1nn1ccccc41)(C3)C2
[1]
  %max: 2.4%
[3]; read-out: IC50
  IC50: > 30 µM
[3]; read-out: pIC50 (converted)
  IC50: > 31.6 µM
[2]
  IC50: 0.484 µM

## CC(C)(C)CCNc1ncnc2c1nn1ccccc21
[1]
  %max: 1.5%
[3]; read-out: IC50
  IC50: 3.6 µM
[2]
  IC50: 0.341 µM
[19]
  %max: 1.3%

## c1ccn2nc3c(NC4CCCCCC4)ncnc3c2c1
[1]
  %max: 2%
[3]; hek293, read-out: IC50
  IC50: > 10 µM
[3]; read-out: pIC50 (converted)
  IC50: > 10 µM
[2]
  IC50: 0.225 µM
[19]
  %max: 20%

## C[C@@H](Nc1ncnc2c1nn1ccccc21)C1CC1
[1]
  %max: 71.6%
[3]; read-out: IC50
  IC50: > 30 µM
[3]; read-out: pIC50 (converted)
  IC50: > 31.6 µM
[2]
  IC50: > 10 µM

## C[C@@H](Nc1ncnc2c1nn1ccccc21)C1CCCCC1
[1]
  %max: 2.4%
[3]; hek293
  pIC50: < 5
[3]; read-out: IC50
  IC50: > 10 µM
[19]
  %max: 18.4%

## OCCSc1nc2c(c(NC3Cc4ccccc4C3)n1)CCCC2
[39]
  IC50: 0.028 µM
[40]
  IC50: > 9.1 µM

## C[C@@H]1[C@H]2C[C@@H](C[C@H]1Nc1ncnc3c1nn1ccccc31)C2(C)C
[1]
  %max: 2.7%
[3]; hek293, read-out: IC50
  IC50: > 10 µM
[3]; read-out: pIC50 (converted)
  IC50: > 10 µM
[2]
  IC50: 0.152 µM
[19]
  %max: 9%

## CCC(C)(C)Nc1ncnc2c1nn1ccccc21
[1]
  %max: 12.6%
[3]; read-out: IC50
  IC50: > 30 µM
[3]; read-out: pIC50 (converted)
  IC50: > 31.6 µM
[2]
  IC50: > 10 µM

## CNc1nc(N[C@H]2CC[C@H](C)CC2)c2nn3ccccc3c2n1
[3]; read-out: IC50
  IC50: > 30 µM
[3]; read-out: pIC50 (converted)
  IC50: > 31.6 µM
[2]
  IC50: > 30 µM
